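The compound was tested at five concentrations on cells cultured in 96-well plates, with a 48-hour exposure period. GI50 is the concentration that inhibits growth by half. TGI: total growth inhibition.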
Experiments:
Assay in all cases: growth of human tumour cells (NCI), 48 h
786-0 renal = tested on: 786-0 renal
A498 renal = tested on: A498 renal
A549 NSCLC = tested on: A549 NSCLC
ACHN renal = tested on: ACHN renal
BT-549 breast = tested on: BT-549 breast
CAKI-1 renal = tested on: CAKI-1 renal
CCRF-CEM leukemia = tested on: CCRF-CEM leukemia
COLO 205 colon = tested on: COLO 205 colon
DU-145 prostate = tested on: DU-145 prostate
EKVX NSCLC = tested on: EKVX NSCLC
HCC-2998 colon = tested on: HCC-2998 colon
HCT-116 colon = tested on: HCT-116 colon
HCT-15 colon = tested on: HCT-15 colon
HL-60(TB) leukemia = tested on: HL-60(TB) leukemia
HOP-62 NSCLC = tested on: HOP-62 NSCLC
HOP-92 NSCLC = tested on: HOP-92 NSCLC
HS 578T breast = tested on: HS 578T breast
HT29 colon = tested on: HT29 colon
IGROV1 ovarian = tested on: IGROV1 ovarian
K-562 leukemia = tested on: K-562 leukemia
KM12 colon = tested on: KM12 colon
LOX IMVI melanoma = tested on: LOX IMVI melanoma
M14 melanoma = tested on: M14 melanoma
MALME-3M melanoma = tested on: MALME-3M melanoma
MCF7 breast = tested on: MCF7 breast
MDA-MB-231 breast = tested on: MDA-MB-231 breast
MDA-MB-435 = tested on: MDA-MB-435
MOLT-4 leukemia = tested on: MOLT-4 leukemia
NCI-H226 lung = tested on: NCI-H226 lung
NCI-H460 lung = tested on: NCI-H460 lung
NCI-H522 lung = tested on: NCI-H522 lung
NCI/ADR-RES ovarian = tested on: NCI/ADR-RES ovarian
OVCAR-3 ovarian = tested on: OVCAR-3 ovarian
OVCAR-4 ovarian = tested on: OVCAR-4 ovarian
OVCAR-5 ovarian = tested on: OVCAR-5 ovarian
OVCAR-8 ovarian = tested on: OVCAR-8 ovarian
PC-3 prostate = tested on: PC-3 prostate
RPMI-8226 leukemia = tested on: RPMI-8226 leukemia
RXF 393 renal = tested on: RXF 393 renal
SF-268 CNS = tested on: SF-268 CNS
SF-295 CNS = tested on: SF-295 CNS
SF-539 CNS = tested on: SF-539 CNS
SK-MEL-2 melanoma = tested on: SK-MEL-2 melanoma
SK-MEL-28 melanoma = tested on: SK-MEL-28 melanoma
SK-MEL-5 melanoma = tested on: SK-MEL-5 melanoma
SK-OV-3 ovarian = tested on: SK-OV-3 ovarian
SN12C renal = tested on: SN12C renal
SNB-19 CNS = tested on: SNB-19 CNS
SNB-75 CNS = tested on: SNB-75 CNS
SR leukemia = tested on: SR leukemia
SW-620 colon = tested on: SW-620 colon
T-47D breast = tested on: T-47D breast
TK-10 renal = tested on: TK-10 renal
U251 CNS = tested on: U251 CNS
UACC-257 melanoma = tested on: UACC-257 melanoma
UACC-62 melanoma = tested on: UACC-62 melanoma
UO-31 renal = tested on: UO-31 renal

SMILES: C/C(=C(/c1ccc(O)cc1)c1ccc(OCCN(C)C)cc1)c1ccc(Cl)cc1
- GI50 (786-0 renal): 14.8 µM
- TGI (786-0 renal): 29.5 µM
- GI50 (A498 renal): > 100 µM
- TGI (A498 renal): > 100 µM
- GI50 (A549 NSCLC): 50.9 µM
- TGI (A549 NSCLC): > 100 µM
- GI50 (ACHN renal): 29.1 µM
- TGI (ACHN renal): 89.4 µM
- GI50 (BT-549 breast): 40.9 µM
- TGI (BT-549 breast): > 100 µM
- GI50 (CAKI-1 renal): 15.8 µM
- TGI (CAKI-1 renal): 40.9 µM
- GI50 (CCRF-CEM leukemia): 25 µM
- TGI (CCRF-CEM leukemia): 77.7 µM
- GI50 (COLO 205 colon): 17.6 µM
- TGI (COLO 205 colon): 33.1 µM
- GI50 (DU-145 prostate): 34.3 µM
- TGI (DU-145 prostate): > 100 µM
- GI50 (EKVX NSCLC): 34.4 µM
- TGI (EKVX NSCLC): > 100 µM
- GI50 (HCC-2998 colon): 18.1 µM
- TGI (HCC-2998 colon): 35.1 µM
- GI50 (HCT-116 colon): 14.8 µM
- TGI (HCT-116 colon): 28.7 µM
- GI50 (HCT-15 colon): 18 µM
- TGI (HCT-15 colon): 37.7 µM
- GI50 (HL-60(TB) leukemia): 17.9 µM
- TGI (HL-60(TB) leukemia): 39.3 µM
- GI50 (HOP-62 NSCLC): 18.2 µM
- TGI (HOP-62 NSCLC): 38.7 µM
- GI50 (HOP-92 NSCLC): 22.3 µM
- TGI (HOP-92 NSCLC): 90.3 µM
- GI50 (HS 578T breast): 20 µM
- TGI (HS 578T breast): 75.9 µM
- GI50 (HT29 colon): 16 µM
- TGI (HT29 colon): 31.9 µM
- GI50 (IGROV1 ovarian): 31.6 µM
- TGI (IGROV1 ovarian): > 100 µM
- GI50 (K-562 leukemia): 19.6 µM
- TGI (K-562 leukemia): 53.8 µM
- GI50 (KM12 colon): 25.6 µM
- TGI (KM12 colon): 72.6 µM
- GI50 (LOX IMVI melanoma): 17.2 µM
- TGI (LOX IMVI melanoma): 32.1 µM
- GI50 (M14 melanoma): 17.6 µM
- TGI (M14 melanoma): 35.3 µM
- GI50 (MALME-3M melanoma): 16 µM
- TGI (MALME-3M melanoma): 30.9 µM
- GI50 (MCF7 breast): 1690 nM
- TGI (MCF7 breast): 27.2 µM
- GI50 (MDA-MB-231 breast): 20.7 µM
- TGI (MDA-MB-231 breast): 46.1 µM
- GI50 (MDA-MB-435): 16.6 µM
- TGI (MDA-MB-435): 31.4 µM
- GI50 (MOLT-4 leukemia): 20 µM
- TGI (MOLT-4 leukemia): 52.5 µM
- GI50 (NCI-H226 lung): 54.5 µM
- TGI (NCI-H226 lung): > 100 µM
- GI50 (NCI-H460 lung): 17.5 µM
- TGI (NCI-H460 lung): 32.9 µM
- GI50 (NCI-H522 lung): 17.4 µM
- TGI (NCI-H522 lung): 38 µM
- GI50 (NCI/ADR-RES ovarian): 28.3 µM
- TGI (NCI/ADR-RES ovarian): > 100 µM
- GI50 (OVCAR-3 ovarian): 24 µM
- TGI (OVCAR-3 ovarian): 69 µM
- GI50 (OVCAR-4 ovarian): 35.4 µM
- TGI (OVCAR-4 ovarian): > 100 µM
- GI50 (OVCAR-5 ovarian): 33.7 µM
- TGI (OVCAR-5 ovarian): > 100 µM
- GI50 (OVCAR-8 ovarian): 31 µM
- TGI (OVCAR-8 ovarian): > 100 µM
- GI50 (PC-3 prostate): 23.7 µM
- TGI (PC-3 prostate): 74.8 µM
- GI50 (RPMI-8226 leukemia): 20.8 µM
- TGI (RPMI-8226 leukemia): 54.5 µM
- GI50 (RXF 393 renal): 13.8 µM
- TGI (RXF 393 renal): 28.1 µM
- GI50 (SF-268 CNS): 36.3 µM
- TGI (SF-268 CNS): > 100 µM
- GI50 (SF-295 CNS): 21 µM
- TGI (SF-295 CNS): 42.1 µM
- GI50 (SF-539 CNS): 16.1 µM
- TGI (SF-539 CNS): 30.1 µM
- GI50 (SK-MEL-2 melanoma): 25.6 µM
- TGI (SK-MEL-2 melanoma): 84.2 µM
- GI50 (SK-MEL-28 melanoma): 16.7 µM
- TGI (SK-MEL-28 melanoma): 31.5 µM
- GI50 (SK-MEL-5 melanoma): 17.8 µM
- TGI (SK-MEL-5 melanoma): 33.5 µM
- GI50 (SK-OV-3 ovarian): 48.7 µM
- TGI (SK-OV-3 ovarian): > 100 µM
- GI50 (SN12C renal): 32.5 µM
- TGI (SN12C renal): > 100 µM
- GI50 (SNB-19 CNS): 21.4 µM
- TGI (SNB-19 CNS): 51.1 µM
- GI50 (SNB-75 CNS): 19.9 µM
- TGI (SNB-75 CNS): > 100 µM
- GI50 (SR leukemia): 18.8 µM
- TGI (SR leukemia): 47.9 µM
- GI50 (SW-620 colon): 16.2 µM
- TGI (SW-620 colon): 31.7 µM
- GI50 (T-47D breast): 12.2 µM
- TGI (T-47D breast): 59.5 µM
- GI50 (TK-10 renal): 79.7 µM
- TGI (TK-10 renal): > 100 µM
- GI50 (U251 CNS): 16.5 µM
- TGI (U251 CNS): 31.9 µM
- GI50 (UACC-257 melanoma): 16.9 µM
- TGI (UACC-257 melanoma): 32.7 µM
- GI50 (UACC-62 melanoma): 18.5 µM
- TGI (UACC-62 melanoma): 36.5 µM
- GI50 (UO-31 renal): 13.5 µM
- TGI (UO-31 renal): 28.8 µM

Reference: PubChem BioAssay (NCI)
